The results in this text go back to publication PMC9516332 (Frontiers in Oncology, 2022).

Where two headings read alike, the source gives them in different places.

What all share (assay): Kinase panel profiling at 1 µmol/L (MSA or IMAP), percentage inhibition
Common to all, as to format: biochemical

Assay [1] concerns the target panel of 255 wild-type kinases (Homo sapiens, UniProt P11802). The settings on record: read-out: %-inhibition CDK4/CycD3.
The target in assay [2] is panel of 255 wild-type kinases (Homo sapiens, UniProt Q15119). The note with it: read-out: %-inhibition at 1 µmol/L, PDHK2.
Assay [3] addresses panel of 255 wild-type kinases (Homo sapiens, UniProt P10721). The settings on record: read-out: %-inhibition at 1 µmol/L, KIT.
For assay [4], the target named is T1, panel of 255 wild-type kinases (Homo sapiens, UniProt O00141).
T1 sequence (O00141 1-431): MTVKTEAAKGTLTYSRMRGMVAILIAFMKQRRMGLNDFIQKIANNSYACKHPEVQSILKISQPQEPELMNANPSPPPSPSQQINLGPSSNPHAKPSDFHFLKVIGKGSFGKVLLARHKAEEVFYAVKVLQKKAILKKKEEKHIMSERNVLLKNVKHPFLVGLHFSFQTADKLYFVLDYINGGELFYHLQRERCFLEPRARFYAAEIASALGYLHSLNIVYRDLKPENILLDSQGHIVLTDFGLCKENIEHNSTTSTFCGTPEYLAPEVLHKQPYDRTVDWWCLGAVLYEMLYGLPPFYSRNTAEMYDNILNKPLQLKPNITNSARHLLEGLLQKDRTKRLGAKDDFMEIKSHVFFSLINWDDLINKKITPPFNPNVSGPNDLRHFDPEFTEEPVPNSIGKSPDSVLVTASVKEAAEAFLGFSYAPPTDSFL
The settings on record: read-out: %-inhibition at 1 µmol/L, SGK.

Assay [5] concerns the target T2, panel of 255 wild-type kinases (Homo sapiens, UniProt Q96L34).
T2 sequence (Q96L34 1-752): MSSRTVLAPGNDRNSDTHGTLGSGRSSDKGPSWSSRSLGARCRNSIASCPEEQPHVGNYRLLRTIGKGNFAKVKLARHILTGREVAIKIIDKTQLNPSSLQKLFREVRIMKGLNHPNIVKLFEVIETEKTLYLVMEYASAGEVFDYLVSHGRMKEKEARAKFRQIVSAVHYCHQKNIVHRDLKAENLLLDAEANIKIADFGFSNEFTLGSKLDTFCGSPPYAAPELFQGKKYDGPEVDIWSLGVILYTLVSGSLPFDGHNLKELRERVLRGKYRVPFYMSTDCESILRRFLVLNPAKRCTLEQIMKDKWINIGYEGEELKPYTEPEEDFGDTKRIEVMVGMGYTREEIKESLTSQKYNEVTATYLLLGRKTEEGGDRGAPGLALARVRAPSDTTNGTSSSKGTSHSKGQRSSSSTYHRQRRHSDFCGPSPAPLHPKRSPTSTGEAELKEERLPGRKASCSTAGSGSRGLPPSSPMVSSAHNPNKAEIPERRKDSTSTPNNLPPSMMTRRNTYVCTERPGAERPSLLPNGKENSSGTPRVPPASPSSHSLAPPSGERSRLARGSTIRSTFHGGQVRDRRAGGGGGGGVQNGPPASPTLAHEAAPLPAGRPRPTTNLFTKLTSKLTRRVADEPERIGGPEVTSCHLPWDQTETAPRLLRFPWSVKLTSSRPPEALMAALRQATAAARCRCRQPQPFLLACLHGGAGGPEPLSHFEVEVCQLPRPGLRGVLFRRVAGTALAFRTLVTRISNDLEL
The note with it: read-out: %-inhibition, MARK4.

For assay [6], the target named is T3, panel of 255 wild-type kinases (Homo sapiens, UniProt O15111).
T3 sequence (O15111 1-745): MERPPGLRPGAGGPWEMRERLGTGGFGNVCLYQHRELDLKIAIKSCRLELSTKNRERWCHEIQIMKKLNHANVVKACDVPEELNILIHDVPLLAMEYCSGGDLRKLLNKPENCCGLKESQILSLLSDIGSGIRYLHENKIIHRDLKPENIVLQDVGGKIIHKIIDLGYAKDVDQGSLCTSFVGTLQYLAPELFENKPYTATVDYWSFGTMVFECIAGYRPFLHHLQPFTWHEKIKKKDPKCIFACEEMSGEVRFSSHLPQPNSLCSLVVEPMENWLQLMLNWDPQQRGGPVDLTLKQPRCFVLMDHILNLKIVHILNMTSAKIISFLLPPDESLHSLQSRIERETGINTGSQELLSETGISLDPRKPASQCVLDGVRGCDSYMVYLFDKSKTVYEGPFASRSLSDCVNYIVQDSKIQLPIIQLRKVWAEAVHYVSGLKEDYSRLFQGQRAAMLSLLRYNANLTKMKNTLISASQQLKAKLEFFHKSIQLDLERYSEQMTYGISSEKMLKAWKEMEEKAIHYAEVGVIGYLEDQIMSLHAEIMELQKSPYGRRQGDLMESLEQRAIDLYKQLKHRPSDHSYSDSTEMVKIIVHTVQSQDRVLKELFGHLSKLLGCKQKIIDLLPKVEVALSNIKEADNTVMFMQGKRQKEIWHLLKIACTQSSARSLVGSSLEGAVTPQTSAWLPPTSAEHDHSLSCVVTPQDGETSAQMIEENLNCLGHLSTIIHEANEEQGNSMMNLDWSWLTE
The note with it: read-out: %-inhibition at 1 µmol/L, IKKα.

Assay [7] concerns the target panel of 255 wild-type kinases (Homo sapiens, UniProt P08922). The settings on record: read-out: %-inhibition at 1 µmol/L, ROS.
The target in assay [8] is panel of 255 wild-type kinases (Homo sapiens, UniProt O96013). The note with it: read-out: %-inhibition, PAK4.
For assay [9], the target named is panel of 255 wild-type kinases (Homo sapiens, UniProt Q13627). The note with it: read-out: %-inhibition at 1 µmol/L, DYRK1A.
The target of assay [10] is panel of 255 wild-type kinases (Homo sapiens, UniProt Q9UK32). The settings on record: read-out: %-inhibition at 1 µmol/L, RSK4.
Assay [11] concerns the target panel of 255 wild-type kinases (Homo sapiens, UniProt P22612). The settings on record: read-out: %-inhibition at 1 µmol/L, PKACγ.
Where [12] appears, read: CDK4/CycD3 kinase assay, 1 µmol/L single concentration.
Setting [13] is: kinase PDHK2, 1 µmol/L single concentration.
Setting [14] is: kinase KIT, 1 µmol/L single concentration.
Where [15] appears, read: kinase SGK, 1 µmol/L single concentration.
[16] abbreviates: MARK4, 1 µmol/L single concentration.
[17] abbreviates: kinase IKKα, 1 µmol/L single concentration.
The mark [18] stands for this setting: kinase ROS, 1 µmol/L single concentration.
Setting [19] is: PAK4, 1 µmol/L single concentration.
[20] abbreviates: kinase DYRK1A, 1 µmol/L single concentration.
Setting [21] is: kinase RSK4, 1 µmol/L single concentration.
Setting [22] is: kinase PKACγ, 1 µmol/L single concentration.

Take `Cn1cc(-c2cc3c(N4CCN(c5ncc([C@@](C)(N)c6ccc(F)cc6)cn5)CC4)ncnn3c2)cn1` [avapritinib]: the inhibition at 1 µM in [1] (setting [12]) was 9%; in assay [2] (setting [13]), 0.651%; in assay [3] (setting [14]) it was 100%; in assay [4] (setting [15]), 0.775%; in assay [5] (setting [16]), -5.63%; in [6] (setting [17]), 2.41%. The inhibition at 1 µM is 67% in [7] (setting [18]); 8% in assay [8] (setting [19]); 57% in assay [9] (setting [20]); 7.6% in assay [10] (setting [21]); 4.43% in assay [11] (setting [22]).
For the compound `C[C@H](Nc1ncnc2nc[nH]c12)c1cc2cccc(Cl)c2c(=O)n1-c1ccccc1` [duvelisib], the inhibition at 1 µM in assay [1] (setting [12]) was -10%; in assay [2] (setting [13]) it was 3.57%; in [3] (setting [14]), -2.43%; in assay [4] (setting [15]) it was -3.47%; in assay [5] (setting [16]), 4.7%; in assay [6] (setting [17]), 8%. Besides, the inhibition at 1 µM in assay [7] (setting [18]) is -3.53%; in assay [8] (setting [19]), 0.277%; in assay [9] (setting [20]) it was -3.48%; in [10] (setting [21]), -5%; in assay [11] (setting [22]), -4%.
Consider `COc1cc2ncnc(Nc3ccc(F)c(Cl)c3)c2cc1NC(=O)/C=C/CN1CCCCC1` [dacomitinib], for which the inhibition at 1 µM was -0.81% in assay [1] (setting [12]); 2.44% in assay [2] (setting [13]); -10% in [3] (setting [14]); -6% in assay [4] (setting [15]); 4.31% in assay [5] (setting [16]); 10% in [6] (setting [17]). Further, the inhibition at 1 µM in assay [7] (setting [18]) was 22%; in assay [8] (setting [19]) it was -3.66%; in [9] (setting [20]), 9%; in assay [10] (setting [21]), 16%; in [11] (setting [22]) it was 12%.
As to `CCN1CCN(c2ccc(Nc3cc(N(C)C(=O)Nc4c(Cl)c(OC)cc(OC)c4Cl)ncn3)cc2)CC1` [infigratinib], the inhibition at 1 µM is 66% in assay [1] (setting [12]); -3.38% in assay [2] (setting [13]); -1.45% in [4] (setting [15]); -3% in assay [5] (setting [16]); 2.62% in assay [6] (setting [17]); 29% in assay [7] (setting [18]). The inhibition at 1 µM in assay [8] (setting [19]) is 6%; in assay [9] (setting [20]), -4%; in assay [10] (setting [21]), 7%; in [11] (setting [22]), -0.0435%.
Consider `Cn1cnc2c(F)c(Nc3ccc(Br)cc3Cl)c(C(=O)NOCCO)cc21` [selumetinib], for which the inhibition at 1 µM is -1.85% in assay [1] (setting [12]); 2.47% in [2] (setting [13]); -2.4% in assay [3] (setting [14]); 1.83% in assay [4] (setting [15]); -11% in [5] (setting [16]); -0.157% in [6] (setting [17]). Also, the inhibition at 1 µM in assay [7] (setting [18]) is 15%; in assay [8] (setting [19]) it was 4.6%; in [9] (setting [20]) it was -3.48%; in [10] (setting [21]), 5.4%; in assay [11] (setting [22]), -4%.
For `CNC(=O)c1ccc(-c2cnc3ncc(Cc4ccc5ncccc5c4)n3n2)cc1F` [capmatinib], the inhibition at 1 µM in [1] was -3.55%; in assay [2], -2.62%; in assay [3], 4%; in [4] it was -0.731%; in assay [5], 6%; in assay [6], 1.1%. Also, the inhibition at 1 µM in assay [7] was 21%; in assay [8], 1%; in assay [9] it was -0.902%; in assay [10] it was 8%; in assay [11] it was -1.43%.
For `COC(=O)N[C@@H](C)CNc1nccc(-c2cn(C(C)C)nc2-c2cc(Cl)cc(NS(C)(=O)=O)c2F)n1` [encorafenib], the inhibition at 1 µM in [1] (setting [12]) is 10%; in [2] (setting [13]), -2%; in [3] (setting [14]), -1.43%; in [4] (setting [15]), 7%; in [5] (setting [16]), 2.32%; in assay [6] (setting [17]), 12%. Besides, the inhibition at 1 µM in assay [7] (setting [18]) was 14%; in assay [8] (setting [19]), -2.13%; in assay [9] (setting [20]) it was 6%; in assay [10] (setting [21]), 4.58%; in [11] (setting [22]), -2.32%.
For the compound `CN1CCN(c2ccc(C(=O)Nc3n[nH]c4ccc(Cc5cc(F)cc(F)c5)cc34)c(NC3CCOCC3)c2)CC1` [entrectinib], the inhibition at 1 µM in [1] (setting [12]) is -7.43%; in [2] (setting [13]), 4.24%; in [3] (setting [14]), 21%; in [4] (setting [15]), -5.65%; in assay [5] (setting [16]), 15%; in assay [6] (setting [17]), 8%. The inhibition at 1 µM is -3.18% in assay [9] (setting [20]) and -4.58% in assay [11] (setting [22]).
With `CCn1c(=O)c(-c2cc(NC(=O)Nc3ccccc3)c(F)cc2Br)cc2cnc(NC)cc21` [ripretinib], the inhibition at 1 µM is -1.19% in [1] (setting [12]); 0.884% in [2] (setting [13]); -5% in assay [4] (setting [15]); -2.13% in assay [5] (setting [16]); 1.08% in assay [6] (setting [17]); 3.79% in assay [7] (setting [18]). Besides, the inhibition at 1 µM in assay [8] (setting [19]) was 0.34%; in assay [9] (setting [20]) it was 1.4%; in assay [10] (setting [21]) it was 0.401%; in assay [11] (setting [22]) it was 2.69%.
